Data published in paper PMC11294338 (Nature Communications, 2024).

Assays:
[1] = test system: SARS-CoV-2 (USA-WA1/2020) replicon in HuH-7 cells; format: cell-based
SARS-CoV-2 [2] = conditions: human, in vivo; cited from earlier work
SARS-CoV-2 [3] = conditions: in vivo; cited from earlier work

| SMILES | EC50 [1] [nM] | post-exposure prophylactic prevention of transmission versus placebo (SARS-CoV-2 [2]) | transmission to untreated contact animals (SARS-CoV-2 [3]) |
| --- | --- | --- | --- |
| CC(C)(C)[C@H](NC(=O)C(F)(F)F)C(=O)N1C[C@H]2[C@@H]([C@H]1C(=O)N[C@H](C#N)C[C@@H]1CCNC1=O)C2(C)C [Nirmatrelvir] | 15 | – | – |
| CC(C)C(=O)OC[C@H]1O[C@@H](n2ccc(NO)nc2=O)[C@H](O)[C@@H]1O [molnupiravir] | – | neither was able to reach statistical significance over placebo | prevented such transmission |
